According to publication PMC3553014, “Albumin Stimulates the Activity of the Human UDP-Glucuronosyltransferases 1A7, 1A8, 1A10, 2A1 and 2B15, but the Effects Are Enzyme and Substrate Dependent” (PLoS ONE, 2013):
Several values for one entry are separate records, joined by “and”; a condition that tells them apart may be missing. Equal values may be shown once. Read-outs that look alike come from different tables or passages of the source.

How the values were obtained:
[1] = target: T1, UGT1A1 (Homo sapiens, UniProt P22309); assay: UGT1A1-catalyzed glucuronidation, enzyme kinetics
T1 sequence (P22309 26-533): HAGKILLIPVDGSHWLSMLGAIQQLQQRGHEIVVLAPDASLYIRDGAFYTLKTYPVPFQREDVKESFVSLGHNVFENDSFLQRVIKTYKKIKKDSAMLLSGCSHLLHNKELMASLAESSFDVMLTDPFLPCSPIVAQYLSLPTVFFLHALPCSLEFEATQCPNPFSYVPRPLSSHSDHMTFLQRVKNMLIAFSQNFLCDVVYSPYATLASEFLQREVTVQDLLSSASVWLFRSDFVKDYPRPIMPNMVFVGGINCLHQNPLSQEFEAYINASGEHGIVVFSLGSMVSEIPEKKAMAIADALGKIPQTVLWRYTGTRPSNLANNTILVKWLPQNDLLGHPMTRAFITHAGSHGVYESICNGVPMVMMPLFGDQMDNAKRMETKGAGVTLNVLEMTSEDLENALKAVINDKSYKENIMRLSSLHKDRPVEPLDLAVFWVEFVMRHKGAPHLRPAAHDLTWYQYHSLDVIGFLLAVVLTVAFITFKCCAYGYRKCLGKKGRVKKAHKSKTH
Experimental: (§1) Recombinant human UGTs 1A1, 1A6, 1A7, 1A8, 1A10, 2A1, 2B4, 2B7 and 2B17 were expressed as His-tagged proteins in baculovirus-infected insect cells as described previously [14]. […] Protein concentrations were determined by the BCA method (Pierce Biotechnology, Rockford, IL, USA).
(§2) The protein concentrations and incubation times for the enzyme kinetic assays were selected based on preliminary assays in order to ensure that the product formation was within the linear range with respect to both protein concentration and time, and that the substrate consumption during the reaction was less than 10%. The initial velocity measurements were performed in either duplicates or triplicates and they are presented as the average values and S.E.
(§3) The glucuronidation rates by recombinant enzymes are reported as “expression normalized” values. The relative expression level of each recombinant UGT that was produced in our laboratory was determined using immunoblotting, as previously described [14], [19]. The dot blot assays were performed in triplicate and the average value was used for normalization. […] The “expression normalized” glucuronidation rates were calculated by dividing the measured glucuronidation rates with relative expression level of the each given recombinant UGT.
(§4) In assays containing BSA, the total concentrations of substrate were corrected according to the measured drug binding to BSA, under the specific conditions of each glucuronidation assay. The statistical significance of the difference in enzyme kinetics parameters upon BSA addition was tested with extra sum-of-squares F-test (included in the GraphPad software, [20]. The initial glucuronidation rates were fitted to the following equations:

[2] = target: T2, UGT2B17 (Homo sapiens, UniProt O75795)
T2 sequence (O75795 24-530): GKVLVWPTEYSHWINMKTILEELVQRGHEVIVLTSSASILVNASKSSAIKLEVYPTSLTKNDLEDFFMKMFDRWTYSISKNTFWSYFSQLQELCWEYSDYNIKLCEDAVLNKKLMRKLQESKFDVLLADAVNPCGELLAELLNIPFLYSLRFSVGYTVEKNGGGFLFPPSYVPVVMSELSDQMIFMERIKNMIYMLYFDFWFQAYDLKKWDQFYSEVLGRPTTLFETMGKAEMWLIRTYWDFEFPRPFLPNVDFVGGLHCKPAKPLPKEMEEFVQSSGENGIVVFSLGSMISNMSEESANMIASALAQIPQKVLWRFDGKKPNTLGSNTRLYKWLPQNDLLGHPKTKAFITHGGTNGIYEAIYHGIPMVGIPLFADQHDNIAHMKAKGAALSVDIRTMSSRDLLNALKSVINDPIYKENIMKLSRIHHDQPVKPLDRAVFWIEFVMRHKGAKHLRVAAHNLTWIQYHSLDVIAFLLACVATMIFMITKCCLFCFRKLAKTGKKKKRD
Experimental: as §1, §2, §3, §4

[3] = target: T3, UGT1A6 (Homo sapiens, UniProt P19224); assay: UGT1A6-catalyzed glucuronidation, enzyme kinetics
T3 sequence (P19224 27-532): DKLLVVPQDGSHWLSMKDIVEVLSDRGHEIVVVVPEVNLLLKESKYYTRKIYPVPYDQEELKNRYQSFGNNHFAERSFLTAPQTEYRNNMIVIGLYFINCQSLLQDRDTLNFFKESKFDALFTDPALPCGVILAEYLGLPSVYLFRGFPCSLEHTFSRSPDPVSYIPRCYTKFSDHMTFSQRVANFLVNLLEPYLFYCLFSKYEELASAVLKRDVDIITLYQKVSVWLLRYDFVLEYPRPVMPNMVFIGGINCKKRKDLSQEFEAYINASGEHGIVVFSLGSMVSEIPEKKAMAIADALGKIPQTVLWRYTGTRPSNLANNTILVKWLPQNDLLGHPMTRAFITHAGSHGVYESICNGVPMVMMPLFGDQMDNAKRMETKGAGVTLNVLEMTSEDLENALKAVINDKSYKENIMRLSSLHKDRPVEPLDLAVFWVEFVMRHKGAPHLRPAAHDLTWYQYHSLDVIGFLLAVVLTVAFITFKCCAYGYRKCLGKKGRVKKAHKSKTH
Experimental: as §1, §2, §3, §4

[4] = target: T4, UGT1A8 (Homo sapiens, UniProt Q9HAW9); assay: UGT1A8-catalyzed glucuronidation, enzyme kinetics
T4 sequence (Q9HAW9 26-530): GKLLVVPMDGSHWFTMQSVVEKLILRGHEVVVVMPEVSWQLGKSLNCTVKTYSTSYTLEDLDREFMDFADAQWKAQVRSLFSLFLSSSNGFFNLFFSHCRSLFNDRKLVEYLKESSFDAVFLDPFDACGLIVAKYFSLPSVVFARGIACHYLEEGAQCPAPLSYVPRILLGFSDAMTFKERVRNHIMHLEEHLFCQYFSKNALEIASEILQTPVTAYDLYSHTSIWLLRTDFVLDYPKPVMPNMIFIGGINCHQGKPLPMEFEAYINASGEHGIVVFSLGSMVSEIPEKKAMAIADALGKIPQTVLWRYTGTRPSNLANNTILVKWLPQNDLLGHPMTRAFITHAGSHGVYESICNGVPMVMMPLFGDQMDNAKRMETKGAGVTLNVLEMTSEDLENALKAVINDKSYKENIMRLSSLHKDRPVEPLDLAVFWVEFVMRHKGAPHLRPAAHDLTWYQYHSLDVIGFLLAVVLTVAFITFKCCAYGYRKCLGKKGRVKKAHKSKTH
Experimental: as §1, §2, §3
(§5) In assays containing BSA, the total concentrations of substrate were corrected according to the measured drug binding to BSA, under the specific conditions of each glucuronidation assay.

[5] = target: T5, BSA (Bos taurus, UniProt P02769); parameters: purchased Sigma-Aldrich (St. Louis, MO, USA); conditions: cited from earlier work
[6] = Drug binding to control insect cell membranes by RED; conditions: 0.2 mg/mL total protein in the membrane
[7] = target: T5, BSA; assay: in vitro; conditions: bovine
[8] = target: T6, UGT1A7 (Homo sapiens, UniProt Q9HAW7); assay: UGT1A7-catalyzed glucuronidation, enzyme kinetics; assay type: in vitro ADME; conditions: No BSA; expression level-normalized
T6 construct: His-tag; made in house; host or cells: baculovirus-infected insect cells (Sf9)
T6 sequence (Q9HAW7 26-530): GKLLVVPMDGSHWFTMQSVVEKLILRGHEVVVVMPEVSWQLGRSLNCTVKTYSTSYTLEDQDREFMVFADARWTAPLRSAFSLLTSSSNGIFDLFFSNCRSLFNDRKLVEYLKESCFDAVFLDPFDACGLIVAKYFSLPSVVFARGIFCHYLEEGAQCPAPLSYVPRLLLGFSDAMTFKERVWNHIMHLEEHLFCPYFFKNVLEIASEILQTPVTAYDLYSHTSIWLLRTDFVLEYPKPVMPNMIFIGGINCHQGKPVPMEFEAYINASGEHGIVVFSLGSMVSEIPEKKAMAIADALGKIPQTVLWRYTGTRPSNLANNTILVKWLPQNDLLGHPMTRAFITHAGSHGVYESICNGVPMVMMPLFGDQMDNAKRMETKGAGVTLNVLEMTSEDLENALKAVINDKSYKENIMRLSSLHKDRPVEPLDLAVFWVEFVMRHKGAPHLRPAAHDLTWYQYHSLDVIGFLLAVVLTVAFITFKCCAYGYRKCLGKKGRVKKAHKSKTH
Experimental: Protein concentrations were determined by the BCA method (Pierce Biotechnology, Rockford, IL, USA).
as §2
The glucuronidation rates by recombinant enzymes are reported as “expression normalized” values. […] The “expression normalized” glucuronidation rates were calculated by dividing the measured glucuronidation rates with relative expression level of the each given recombinant UGT.
The enzyme kinetic parameters were obtained by fitting kinetic models to the experimental data using GraphPad Prism version 5.04 for Windows (GraphPad Software Inc., San Diego, CA, USA).

[9] = target: T7, UGT1A10 (Homo sapiens, UniProt Q9HAW8); assay: UGT1A10-catalyzed glucuronidation, enzyme kinetics; assay type: in vitro ADME; conditions: No BSA; expression level-normalized; estradiols: 3-glucuronide formation
T7 construct: His-tag; made in house; host or cells: baculovirus-infected insect cells (Sf9)
T7 sequence (Q9HAW8 26-530): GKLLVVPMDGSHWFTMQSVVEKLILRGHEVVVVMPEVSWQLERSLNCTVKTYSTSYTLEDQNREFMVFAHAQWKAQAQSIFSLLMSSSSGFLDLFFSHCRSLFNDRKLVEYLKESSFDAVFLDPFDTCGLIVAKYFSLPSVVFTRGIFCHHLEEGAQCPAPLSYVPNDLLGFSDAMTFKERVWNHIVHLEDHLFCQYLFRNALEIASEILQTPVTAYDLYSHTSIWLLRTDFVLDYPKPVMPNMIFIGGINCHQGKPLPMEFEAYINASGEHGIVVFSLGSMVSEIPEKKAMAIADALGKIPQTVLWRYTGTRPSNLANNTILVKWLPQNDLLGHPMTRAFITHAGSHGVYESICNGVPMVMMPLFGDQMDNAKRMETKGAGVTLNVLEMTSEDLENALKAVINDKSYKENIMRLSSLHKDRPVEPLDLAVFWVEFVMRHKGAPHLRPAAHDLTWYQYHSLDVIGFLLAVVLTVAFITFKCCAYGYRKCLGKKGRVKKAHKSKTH
Experimental: as §1, §2
The glucuronidation rates by recombinant enzymes are reported as “expression normalized” values. The relative expression level of each recombinant UGT that was produced in our laboratory was determined using immunoblotting, as previously described [14], [19]. […] The “expression normalized” glucuronidation rates were calculated by dividing the measured glucuronidation rates with relative expression level of the each given recombinant UGT.
as §5

[10] = substrate: Oc1ccc2cc[nH]c2c1; assay: not read; conditions: other: No BSA, pH 7.4
Experimental: as §1, §2, §3, §4

[11] = substrate: Cc1cc(=O)oc2cc(O)ccc12; assay: not read; conditions: other: No BSA, pH 7.4
Experimental: as §1, §2, §3, §4

T5 sequence (P02769 25-607): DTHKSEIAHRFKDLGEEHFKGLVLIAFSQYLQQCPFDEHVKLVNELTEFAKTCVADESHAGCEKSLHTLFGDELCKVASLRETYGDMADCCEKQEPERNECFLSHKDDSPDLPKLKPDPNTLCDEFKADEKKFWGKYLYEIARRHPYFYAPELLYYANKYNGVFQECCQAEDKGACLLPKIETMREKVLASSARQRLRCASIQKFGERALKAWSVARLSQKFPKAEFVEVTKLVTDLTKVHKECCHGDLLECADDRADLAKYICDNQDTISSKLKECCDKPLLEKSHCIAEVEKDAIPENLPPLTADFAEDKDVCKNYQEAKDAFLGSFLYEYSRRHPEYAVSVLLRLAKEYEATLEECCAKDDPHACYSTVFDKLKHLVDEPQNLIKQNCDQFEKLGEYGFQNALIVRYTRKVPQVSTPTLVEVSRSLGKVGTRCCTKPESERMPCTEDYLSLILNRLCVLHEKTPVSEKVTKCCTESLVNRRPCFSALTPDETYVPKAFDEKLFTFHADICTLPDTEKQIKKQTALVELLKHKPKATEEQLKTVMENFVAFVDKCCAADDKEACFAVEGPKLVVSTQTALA

For `Oc1cccc2ccccc12` [1-Naphthol, 1-naphthol], the “K m or S 50 ± S.E.” value [1] was 101±11(78–123) µM and 81.6±5.1(71.0–92.1) µM, the “V max ± S.E.” value [1] was 0.11±0.01(0.10–0.13) nmol•min^–1•mg^–1 and the “K m or S 50 ± S.E.” value [2] was 540±26(485–595) µM and 484±27(427–541) µM. For the same molecule, the “V max ± S.E.” value [2] was 0.28±0.01(0.26–0.31) nmol•min^–1•mg^–1, the “K m or S 50 ± S.E.” value ([3]; 0.1% BSA, substrate concentration corrected for binding to BSA) was 5.25±0.23 ^***(4.78–5.72) µM and the “K m or S 50 ± S.E.” value ([3]; No BSA) was 8.07±0.48(7.08–9.06) µM. For the same molecule, the “V max ± S.E.” value ([3]; No BSA, expression level-normalized) was 6.7±0.1(6.47–6.94) nmol•min^–1•mg^–1, the “K m or S 50 ± S.E.” value [4] was 91.6±6.6(78.0–105.3) µM and 105±16(73–137) µM and the “V max ± S.E.” value [4] was 2.5±0.1(2.3–2.7) nmol•min^–1•mg^–1.

In the case of `C[C@]12CC[C@@H]3c4ccc(O)cc4CC[C@H]3[C@@H]1CC[C@@H]2O` [17β-Estradiol, 17β-estradiol], the “f u (unbound fraction)” value ([5]; 2% BSA, 25 (Walsky et al. 2012)) is given as 0.04, the “K m or S 50 ± S.E.” value [1] is given as 7.84±1.62(4.48–11.21) µM and the “K m or S 50 ± S.E.” value ([1]; 0.1% BSA, substrate concentration corrected for binding to BSA, estradiols: 3-glucuronide formation) is given as 9.06±1.14(6.70–11.42) µM. For the same molecule, the “binding to control insect cell membrane” value [6] was “negligible”, the “V max ± S.E.” value [2] was 0.013±0.0002(0.0125–0.0132) nmol•min^–1•mg^–1 and the “V max ± S.E.” value [4] was 0.020±0.0003(0.019–0.021) nmol•min^–1•mg^–1. For the same molecule, the “K m or S 50 ± S.E.” value ([4]; 0.1% BSA, substrate concentration corrected for binding to BSA, 17β-estradiol: 3-glucuronide formation) was 4.70±0.62 ^**(3.42–5.99) µM and the fraction unbound at 8 h [7] was 0.48 ± 0.01.

For `CCN(CC)C(=O)/C(C#N)=C/c1cc(O)c(O)c([N+](=O)[O-])c1` [Entacapone], the “f u (unbound fraction)” value ([5]; 1% BSA) is listed as less than 0.1, the “V max ± S.E.” value [8] is listed as 0.15±0.01(0.14–0.16) nmol•min^–1•mg^–1 and the “V max ± S.E.” value [9] is listed as 0.91±0.01(0.89–0.94) nmol•min^–1•mg^–1.

B1: UGT2A1 (Homo sapiens) (protein)
chain: GNVLIWPMEGSHWLNVKIIIDELIKKEHNVTVLVASGALFITPTSNPSLTFEIYKVPFGKERIEGVIKDFVLTWLENRPSPSTIWRFYQEMAKVIKDFHMVSQEICDGVLKNQQLMAKLKKSKFEVLVSDPVFPCGDIVALKLGIPFMYSLRFSPASTVEKHCGKVPYPPSYVPAVLSELTDQMSFTDRIRNFISYHLQDYMFETLWKSWDSYYSKALGGLLLCCPGWSAVADLGSLQPLLPGFKRFSRLSLHCSWDYRLPAGRPTTLCETMGKAEIWLIRTYWDFEFPRPYLPNFEFVGGLHCKPAKPLPKVLWRYKGKKPATLGNNTQLFDWIPQNDLLGHPKTKAFITHGGTNGIYEAIYHGVPMVGVPMFADQPDNIAHMKAKGAAVEVNLNTMTSVDLLSALRTVINEPSYKENAMRLSRIHHDQPVKPLDRAVFWIEFVMRHKGAKHLRVAAHDLTWFQYHSLDVIGFLLVCVTTAIFLVIQCCLFSCQKFGKIGKKKKRE
In the case of B1, the K0.5 [10] is reported as 1474±121(1223–1724) µM, the Vmax [10] is reported as 0.00079 µmol/min/mg and the K0.5 [11] is reported as 48.1±4.8(38.2–57.9) µM. For the same molecule, the Vmax [11] was 0.0021 µmol/min/mg.
